“And” between values parts separate entries of the source, which are not always exact repeats. Equal entries are not always repeated. Inconclusive results and toxic doses are left out.
Tested on: BDF1 mice, P388 leukemia ip, median survival T/C
Test: NCI In Vivo Anticancer Drug Screen. Data for tumor model P388 Leukemia (intraperitoneal) in B6D2F1 (BDF1) mice
Settings: endpoint: median survival time, higher = longer survival
Outline: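 Antitumour effect was judged in vivo: survival in drug-treated mice, normalised to that of vehicle-dosed controls, gives the reported T/C.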

[1] = dose: 100.0 mg/kg/injection, schedule: Q04DX003 (ip), vehicle: saline
[2] = dose: 50.0 mg/kg/injection, schedule: Q01DX009 (ip), vehicle: saline with Tween-80
[3] = dose: 100.0 mg/kg/injection, schedule: Q01DX009 (ip), vehicle: saline with Tween-80
[4] = dose: 200.0 mg/kg/injection, schedule: Q01DX009 (ip), vehicle: saline with Tween-80
[5] = dose: 100.0 mg/kg/injection, schedule: Q04DX003 (ip), vehicle: saline with Tween-80
[6] = dose: 200.0 mg/kg/injection, schedule: Q04DX003 (ip), vehicle: saline with Tween-80
[7] = dose: 100.0 mg/kg/injection, schedule: Q01DX001 (ip), vehicle: saline with Tween-80
[8] = dose: 200.0 mg/kg/injection, schedule: Q01DX001 (ip), vehicle: saline with Tween-80

## COC1C=COC2(C)Oc3c(C)c(O)c4c(c3C2=O)/C(=N/C2CCC(O)OC2C)C=C(NC(=O)/C(C)=C\C(=O)C2CC2C(O)C(C)C(O)C(C)C(OC(C)=O)C1C)C4=O (stereo not drawn)
dose: 4.6 mg/kg/injection, schedule: Q01DX009 (ip), vehicle: saline with Tween-80
  T/C: 101 % of control
dose: 9.25 mg/kg/injection, schedule: Q01DX009 (ip), vehicle: saline with Tween-80
  T/C: 105 % of control
dose: 18.5 mg/kg/injection, schedule: Q01DX009 (ip), vehicle: saline with Tween-80
  T/C: 89 % of control
dose: 37.0 mg/kg/injection, schedule: Q01DX009 (ip), vehicle: saline with Tween-80
  T/C: 101 % of control

## N#CCN1CCOCC1
dose: 75.0 mg/kg/injection, schedule: Q01DX009 (ip), vehicle: saline
  T/C: 104 % of control
[1]
  T/C: 104 % of control
dose: 150.0 mg/kg/injection, schedule: Q01DX009 (ip), vehicle: saline
  T/C: 95 % of control
dose: 200.0 mg/kg/injection, schedule: Q04DX003 (ip), vehicle: saline
  T/C: 104 % of control

## Fc1ccc(C2CN3C(=N2)C=Cc2ccccc23)cc1 (stereo not drawn)
[2]
  T/C: 101 % of control
[3]
  T/C: 99 % of control
[4]
  T/C: 117 % of control

## OCC(O)C(O)C(O)C(O)C=Nc1ccc(/C=C/c2ccnc3ccccc23)cc1 (stereo not drawn)
[2]
  T/C: 109 % of control
[3]
  T/C: 105 % of control
[4]
  T/C: 112 % of control

## Nc1ncc(-c2ccc(CNc3ccc(C(=O)NC(CC(=O)O)CC(=O)O)cc3)cc2)c(N)n1
dose: 2.0 mg/kg/injection, schedule: Q04DX003 (ip), vehicle: saline
  T/C: 113 % of control
dose: 5.0 mg/kg/injection, schedule: Q04DX003 (ip), vehicle: saline
  T/C: 104 % of control
dose: 10.0 mg/kg/injection, schedule: Q04DX003 (ip), vehicle: saline
  T/C: 104 % of control
dose: 20.0 mg/kg/injection, schedule: Q04DX003 (ip), vehicle: saline
  T/C: 109 % of control
dose: 30.0 mg/kg/injection, schedule: Q04DX003 (ip), vehicle: saline
  T/C: 118 % of control
dose: 50.0 mg/kg/injection, schedule: Q04DX003 (ip), vehicle: saline with Tween-80
  T/C: 157 % of control
dose: 50.0 mg/kg/injection, schedule: Q04DX003 (ip), vehicle: saline
  T/C: 177 % of control
[5]
  T/C: 242 % of control
[1]
  T/C: 213 % of control

## CCOC(=O)NC12c3ccccc3C(c3ccccc31)C(C(=O)O)C2C(=O)O (stereo not drawn)
[5]
  T/C: 118 % of control
[6]
  T/C: 118 % of control
dose: 400.0 mg/kg/injection, schedule: Q04DX003 (ip), vehicle: saline with Tween-80
  T/C: 118 % of control

## Nc1cccc(/C=C/c2ccnc3ccccc23)c1
dose: 25.0 mg/kg/injection, schedule: Q01DX001 (ip), vehicle: saline with Tween-80
  T/C: 97 % of control
dose: 50.0 mg/kg/injection, schedule: Q01DX001 (ip), vehicle: saline with Tween-80
  T/C: 97 % of control
[7]
  T/C: 93 % of control and 110 % of control
[8]
  T/C: 119 % of control
dose: 400.0 mg/kg/injection, schedule: Q01DX001 (ip), vehicle: saline with Tween-80
  T/C: 102 % of control

## CN(C)C1CCCCC1
dose: 25.0 mg/kg/injection, schedule: Q04DX003 (ip), vehicle: Klucel (hydroxypropylcellulose) (HPC)
  T/C: 91 % of control
dose: 50.0 mg/kg/injection, schedule: Q04DX003 (ip), vehicle: Klucel (hydroxypropylcellulose) (HPC)
  T/C: 95 % of control

## c1ccc(CCNCc2ccccc2)cc1
dose: 25.0 mg/kg/injection, schedule: Q01DX009 (ip), vehicle: saline with Tween-80
  T/C: 100 % of control
[2]
  T/C: 100 % of control
[3]
  T/C: 100 % of control

## CS(=O)(=O)OCCN(CCOS(C)(=O)=O)c1ccc(C=Nc2ccc3oc(=O)ccc3c2)cc1
[5]
  T/C: 212 % of control
dose: 132.0 mg/kg/injection, schedule: Q04DX003 (ip), vehicle: saline with Tween-80
  T/C: 165 % of control
[6]
  T/C: 243 % of control

## O=C1CC(c2c[nH]c3nccnc23)NN1 (stereo not drawn)
dose: 12.5 mg/kg/injection, schedule: Q01DX009 (ip), vehicle: water
  T/C: 100 % of control
dose: 25.0 mg/kg/injection, schedule: Q01DX009 (ip), vehicle: water
  T/C: 101 % of control
dose: 25.0 mg/kg/injection, schedule: Q04DX003 (ip), vehicle: water
  T/C: 104 % of control
dose: 50.0 mg/kg/injection, schedule: Q01DX009 (ip), vehicle: water
  T/C: 110 % of control
dose: 50.0 mg/kg/injection, schedule: Q04DX003 (ip), vehicle: water
  T/C: 100 % of control
dose: 100.0 mg/kg/injection, schedule: Q01DX009 (ip), vehicle: water
  T/C: 100 % of control
dose: 100.0 mg/kg/injection, schedule: Q04DX003 (ip), vehicle: water
  T/C: 95 % of control
dose: 200.0 mg/kg/injection, schedule: Q01DX009 (ip), vehicle: water
  T/C: 103 % of control
dose: 200.0 mg/kg/injection, schedule: Q04DX003 (ip), vehicle: water
  T/C: 104 % of control
dose: 300.0 mg/kg/injection, schedule: Q01DX009 (ip), vehicle: water
  T/C: 103 % of control
dose: 400.0 mg/kg/injection, schedule: Q04DX003 (ip), vehicle: water
  T/C: 100 % of control

## CC(Oc1ccc2ccccc2c1I)C(=O)O (stereo not drawn)
dose: 50.0 mg/kg/injection, schedule: Q01DX005 (ip), vehicle: saline with Tween-80
  T/C: 91 % of control
dose: 100.0 mg/kg/injection, schedule: Q01DX005 (ip), vehicle: saline with Tween-80
  T/C: 113 % of control
dose: 200.0 mg/kg/injection, schedule: Q01DX005 (ip), vehicle: saline with Tween-80
  T/C: 106 % of control

## COc1c(I)cc(/C=C(\C)[N+](=O)[O-])cc1I
[2]
  T/C: 110 % of control
[3]
  T/C: 112 % of control

## COc1cc(C=Nc2ccc(-n3ccnc3C)cc2)ccc1N(CCCl)CCCl
dose: 5.0 mg/kg/injection, schedule: Q01DX009 (ip), vehicle: Klucel (hydroxypropylcellulose) (HPC)
  T/C: 157 % of control
dose: 7.5 mg/kg/injection, schedule: Q01DX009 (ip), vehicle: Klucel (hydroxypropylcellulose) (HPC)
  T/C: 162 % of control

## CN(C)c1ccc(/C=C/c2ccnc3c(N)cccc23)cc1
dose: 100.0 mg/kg/injection, schedule: Q04DX002 (ip), vehicle: saline with Tween-80
  T/C: 110 % of control
dose: 200.0 mg/kg/injection, schedule: Q04DX002 (ip), vehicle: saline with Tween-80
  T/C: 113 % of control
dose: 400.0 mg/kg/injection, schedule: Q04DX002 (ip), vehicle: saline with Tween-80
  T/C: 116 % of control

## OC1(C2(O)c3ccccc3Oc3ccccc32)c2ccccc2Oc2ccccc21
dose: 50.0 mg/kg/injection, schedule: Q01DX001 (ip), vehicle: saline
  T/C: 95 % of control
dose: 100.0 mg/kg/injection, schedule: Q01DX001 (ip), vehicle: saline
  T/C: 90 % of control
dose: 200.0 mg/kg/injection, schedule: Q01DX001 (ip), vehicle: saline
  T/C: 90 % of control

## Cn1c2ccccc2c(=S)c2ccccc21
[7]
  T/C: 89 % of control
[8]
  T/C: 90 % of control

## CC[C@]12CN3CCc4c([nH]c5ccccc45)[C@@](C(=O)OC)(c4cc5c(cc4OC)N(C)[C@H]4[C@@](O)(C(=O)OC)[C@H](OC(C)=O)[C@]6(CC)C=CCN7CC[C@]54[C@@H]76)CC(C3)[C@H]1O2 (stereo partly drawn)
dose: 0.5 mg/kg/injection, schedule: Q01DX009 (ip), vehicle: saline
  T/C: 155 % of control
dose: 1.0 mg/kg/injection, schedule: Q01DX009 (ip), vehicle: saline
  T/C: 160 % of control
dose: 1.5 mg/kg/injection, schedule: Q01DX009 (ip), vehicle: Klucel (hydroxypropylcellulose) (HPC)
  T/C: 124 % of control
dose: 3.0 mg/kg/injection, schedule: Q01DX009 (ip), vehicle: Klucel (hydroxypropylcellulose) (HPC)
  T/C: 162 % of control
dose: 3.0 mg/kg/injection, schedule: Q01DX009 (ip), vehicle: saline
  T/C: 180 % of control
dose: 3.9 mg/kg/injection, schedule: Q01DX009 (ip), vehicle: saline
  T/C: 160 % of control
dose: 6.0 mg/kg/injection, schedule: Q01DX009 (ip), vehicle: Klucel (hydroxypropylcellulose) (HPC)
  T/C: 170 % of control and 171 % of control
dose: 6.0 mg/kg/injection, schedule: Q01DX009 (ip), vehicle: saline with Tween-80
  T/C: 225 % of control
dose: 6.0 mg/kg/injection, schedule: Q01DX009 (ip), vehicle: saline
  T/C: 234 % of control and 200 % of control
dose: 9.0 mg/kg/injection, schedule: Q01DX009 (ip), vehicle: saline with Tween-80
  T/C: 95 % of control
dose: 9.0 mg/kg/injection, schedule: Q01DX009 (ip), vehicle: saline
  T/C: 252 % of control
dose: 12.0 mg/kg/injection, schedule: Q01DX009 (ip), vehicle: Klucel (hydroxypropylcellulose) (HPC)
  T/C: 186 % of control and 216 % of control
dose: 12.0 mg/kg/injection, schedule: Q01DX009 (ip), vehicle: saline
  T/C: 240 % of control
dose: 5.0 micrograms/kg/injection, schedule: Q01DX009 (ip), vehicle: saline
  T/C: 104 % of control
dose: 10.0 micrograms/kg/injection, schedule: Q01DX009 (ip), vehicle: saline
  T/C: 109 % of control
dose: 30.0 micrograms/kg/injection, schedule: Q01DX009 (ip), vehicle: saline
  T/C: 109 % of control
dose: 60.0 micrograms/kg/injection, schedule: Q01DX009 (ip), vehicle: saline
  T/C: 100 % of control
dose: 120.0 micrograms/kg/injection, schedule: Q01DX009 (ip), vehicle: saline
  T/C: 95 % of control

— PubChem BioAssay AID328 (DTP/NCI, 2004)
